pIC50: −log10 of the molar value.

The subject of the assay is lymphocytes. In words: Mixed Lymphocyte Reaction (MLR) II (Example B). Type of assay: cell-based. The following applies: concentration of compound required to inhibit the proliferation of lymphocytes by 50%, cells from two responding donors, 96 hours incubation, ³H-thymidine for the final 24 hours, read-out: IC₅₀. Here is the method:
Mixed Lymphoctye Reaction (MLR) II
The MLR test was performed in 96-well microtitre plates with each well containing 3 x 10⁵ cells from each of two responding donors in a final volume of 0.2ml RPMI 1640 medium supplemented with 10% human serum, L-glutamine and penicillin/streptomycin. The compound under test was dissolved at 10mg/ml in ethanol and further diluted in RPMI 1640. The cells were incubated at 37 °C in a humidified atmosphere of 5% carbon dioxide for 96 hours. ³H-thymidine (0.5uCi) was added for the final 24 hours of the incubation to provide a measure of proliferation.
A selection of compounds were tested according to Example B. The concentration of compound required to inhibit the proliferation of lymphocytes by 50% was measured, and the results were as follows: […]
On to `C=CCC1C=C(C)CC(C)CC(OC)C2OC(O)(C(=O)C(=O)N3CCCCC3C(=O)OC(C(C)=CC3CCC(OC)C(OC)C3)C(C)C(OC)CC1=O)C(C)CC2OC` (stereo not drawn) [Example 1, 17-Allyl-1-hydroxy-12-[2-(3,4-dimethoxycyclohexyl)-1-methylvinyl]-14,23,25-trimethoxy-13,19,21,27-tetramethyl-11,28-dioxa-4-azatricyclo[22.3.1.0^4,9]octacos-18-ene-2,3,10,16-tetraone.], for which the pIC50 was greater than 6.00. As for `C=CCC1C=C(C)CC(C)CC(OC)C2OC(O)(C(=O)C(=O)N3CCCCC3C(=O)OC(C(C)=CC3CCC(OC)C(OC)C3)C(C)C(O)CC1=O)C(C)CC2OC` (stereo not drawn) [Example 2, 17-Allyl-1,14-dihydroxy-12-[2-(3,4-dimethoxycyclohexyl) -1-methylvinyl]-23,25-dimethoxy-13,19,21,27-tetramethyl-11, 28-dioxa-4-azatricyclo[22.3.1.0^4,9]octacos-18-ene-2,3,10, 16-tetraone], the figure is greater than 6.00. As for `C=CCC1C=C(C)CC(C)CC(OC)C2OC(O)(C(C)CC2OC)C(O)C(=O)N2CCCCC2C(=O)OC(C(C)=CC2CCC(O)C(OC)C2)C(C)C(O)CC1=O` (stereo not drawn) [Example 5, 17-Allyl-1,2,14-trihydroxy-12-[2-(4-hydroxy-3-methoxycyclohexyl)-1-methylvinyl]-23,25-dimethoxy-13,19,21,27-tetra methyl-11,28-dioxa-4-azatricyclo[22.3.1.0^4,9]octacos-18-ene-3,10,16-trione], the figure is greater than 6.00. As for `C=CCC1C=C(C)CC(C)CC(OC)C2OC(O)(C(C)CC2OC)C(O)C(=O)N2CCCCC2C(=O)OC(C(C)=CC2CCC(O)C(OC)C2)C(C)C(O)CC1O` (stereo not drawn) [Example 6, 17-Allyl-1,2,14,16-tetrahydroxy-12-[2-(4-hydroxy-3-methoxycyclohexyl)-1-methylvinyl]-23,25-dimethoxy-13,19,21, 27-tetramethyl-11,28-dioxa-4-azatricyclo[22.3.1.0^4,9] octacos-18-ene-3,10-dione], the figure is greater than 6.00; as for `CCCC1C=C(C)CC(C)CC(OC)C2OC(O)(C(=O)C(=O)N3CCCCC3C(=O)OC(C(C)=CC3CCC(O)C(OC)C3)C(C)CCC1=O)C(C)CC2OC` (stereo not drawn) [Example 12, 17-Propyl-1-hydroxy-12-[2-(4-hydroxy-3-methoxycyclohexyl)-1-methylvinyl]-23,25-dimethoxy-13,19,21,27-tetra methyl-11,28-dioxa-4-azatricyclo[22.3.1.0^4,9]octacos-18-ene-2,3,10,16-tetraone], greater than 6.00. Turning to `C=CCC1C=C(C)CC(C)CC(OC)C2OC(O)(C(C)CC2OC)C(O)C(=O)N2CCCCC2C(=O)OC(C(C)=CC2CCC(O)C(OC)C2)C(C)CCC1=O` (stereo not drawn) [Example 15, 17-Allyl-1,2-dihydroxy-12-[2-(4-hydroxy-3-methoxy-cyclohexyl)-1-methylvinyl]-23,25-dimethoxy-13,19,21,27-tetra methyl-11,28-dioxa-4-azatricyclo-[22.3.1.0^4,9]octacos-18-ene-3,10,16-trione], the pIC50 is greater than 6.00. As for `C=CCC1C=C(C)CC(C)CC(OC)C2OC(O)(C(=O)C(=O)N3CCCCC3C(=O)OC(C(C)=CC3CCC(O)C(OC)C3)C(C)CCC1=O)C(C)CC2OC` (stereo not drawn) [Example 17, 17-Allyl-l-hydroxy-12-[2-(4-hydroxy-3-methoxycyclohexyl)-1-methylvinyl]-23,25-dimethoxy-13,19,21,27-tetramethyl-11,28-dioxa-4-azatricyclo[22.3.1.0^4,9]octacos-18-ene-2,3,10,16-tetraone], the figure is greater than 6.00. As for `CCCC1C=C(C)CC(C)CC(OC)C2OC(O)(C(=O)C(=O)N3CCCCC3C(=O)OC(C(C)=CC3CCC(=O)C(OC)C3)C(C)CCC1=O)C(C)CC2OC` (stereo not drawn) [Example 18, 17-Propyl-1-hydroxy-12-[2-(3-methoxy-4-oxocyclohexyl)-1-methylvinyl]-23,25-dimethoxy-13,19,21,27-tetramethyl-11,28-dioxa-4-azatricyclo[22.3.1.0^4,9]octacos-18-ene-2,3,10,16-tetraone.], the figure is greater than 6.00.

For the compound `COC1CC(C=C(C)C2OC(=O)C3CCCCN3C(=O)C(=O)C3(O)OC(C(OC)CC(C)CC(C)=Cc4ccn(CCO)c4CC(O)C2C)C(OC)CC3C)CCC1O` (stereo not drawn) [Example 22, 1,14-Dihydroxy-12-[2-(4-hydroxy-3-methoxycyclohexyl)-1-methylvinyl]-26,28-dimethoxy-17-(2-hydroxyethyl)-13,22,24,30-tetramethyl-11,31-dioxa-4,17-diazatetracyclo[25.3.1.0.^4,9 .0^16,20]hentriaconta-16(20),18,21-triene-2,3,10-trione.], the pIC50 is greater than 6.00. As for `C=CCC1C=C(C)CC(C)CC(OC)C2OC(O)(C(=O)C(=O)N3CCCCC3C(=O)OC(C(C)=CC3CCC(OCOCCOC)C(OC)C3)C(C)C(O)CC1=O)C(C)CC2OC` (stereo not drawn) [Example 27], the figure is greater than 6.00. As for `C=CCC1C=C(C)CC(C)CC(OC)C2OC(O)(C(C)CC2OC)C2(CO2)C(=O)N2CCCCC2C(=O)OC(C(C)=CC2CCC(O)C(OC)C2)C(C)C(O)CC1=O` (stereo not drawn) [Example 30, 17-Allyl-1,14-dihydroxy-12-[2-(4-hydroxy-3-methoxycyclohexyl)-1-methylvinyl]-23,25-dimethoxy-13,19,21, 27-tetramethyl-11,28-dioxa-4-aza-spiro[tricyclo [22.3.1.0^4,9]octacos-18-ene-2,2'-oxirane]-3,10,16-trione.], the figure is greater than 6.00; as for `COC1CC(C=C(C)C2OC(=O)C3CCCCN3C(=O)C(=O)C3(O)OC(C(OC)CC(C)CC(C)=CC4=C(CC(O)C2C)OC(C[Se]c2ccccc2)C4)C(OC)CC3C)CCC1O` (stereo not drawn) [Example 32, 1,14-Dihydroxy-12-[2-(4-hydroxy-3-methoxycyclohexyl)-1-methylvinyl]-26,28-dimethoxy-18-[(phenylseleno)methyl]-13, 22,24,30-tetramethyl-11,17,31-trioxa-4-azatetracyclo[25.3.1. 0.^4,90.^16,20]hentriaconta-16(20),21-diene-2,3,10-trione.], greater than 6.00.

Source of the values: patent publication EP0346427B1, “MACROCYCLIC COMPOUNDS” (FISONS plc, priority 1987, dated 1989).
